Data published in US20200239530A1, “COMPOUNDS AND METHODS OF MODULATING PROTEIN DEGRADATION” (Vividion Therapeutics, Inc., priority 2017, published 2020).

Assays:
Test in all cases: Cysteine liganding, probe competition
Type in all cases: binding
[1] = biological target: T1, NT5DC2 5-nucleotidase domain-containing protein 2 (Homo sapiens, UniProt Q9H857)
T1 construct: Cells were resuspended in cold PBS on ice and sonicated with a probe sonicator to achieve lysis; endogenous in cells
In short: (§1)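 Steps: sonicate cells in cold PBS; treat 5 mg/ml lysate with compound (25° C, 1 hr); add desthiobiotin iodoacetamide probe from a 10 mM stock (25° C, 1 hr); precipitate, reduce, alkylate, digest with trypsin; capture labelled peptides on streptavidin for analysis.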

[2] = biological target: T2, ZNF638 Zinc finger protein 638 (Homo sapiens, UniProt Q14966)
T2 construct: Cells were resuspended in cold PBS on ice and sonicated with a probe sonicator to achieve lysis; endogenous in cells
T2 sequence (Q14966 whole entry): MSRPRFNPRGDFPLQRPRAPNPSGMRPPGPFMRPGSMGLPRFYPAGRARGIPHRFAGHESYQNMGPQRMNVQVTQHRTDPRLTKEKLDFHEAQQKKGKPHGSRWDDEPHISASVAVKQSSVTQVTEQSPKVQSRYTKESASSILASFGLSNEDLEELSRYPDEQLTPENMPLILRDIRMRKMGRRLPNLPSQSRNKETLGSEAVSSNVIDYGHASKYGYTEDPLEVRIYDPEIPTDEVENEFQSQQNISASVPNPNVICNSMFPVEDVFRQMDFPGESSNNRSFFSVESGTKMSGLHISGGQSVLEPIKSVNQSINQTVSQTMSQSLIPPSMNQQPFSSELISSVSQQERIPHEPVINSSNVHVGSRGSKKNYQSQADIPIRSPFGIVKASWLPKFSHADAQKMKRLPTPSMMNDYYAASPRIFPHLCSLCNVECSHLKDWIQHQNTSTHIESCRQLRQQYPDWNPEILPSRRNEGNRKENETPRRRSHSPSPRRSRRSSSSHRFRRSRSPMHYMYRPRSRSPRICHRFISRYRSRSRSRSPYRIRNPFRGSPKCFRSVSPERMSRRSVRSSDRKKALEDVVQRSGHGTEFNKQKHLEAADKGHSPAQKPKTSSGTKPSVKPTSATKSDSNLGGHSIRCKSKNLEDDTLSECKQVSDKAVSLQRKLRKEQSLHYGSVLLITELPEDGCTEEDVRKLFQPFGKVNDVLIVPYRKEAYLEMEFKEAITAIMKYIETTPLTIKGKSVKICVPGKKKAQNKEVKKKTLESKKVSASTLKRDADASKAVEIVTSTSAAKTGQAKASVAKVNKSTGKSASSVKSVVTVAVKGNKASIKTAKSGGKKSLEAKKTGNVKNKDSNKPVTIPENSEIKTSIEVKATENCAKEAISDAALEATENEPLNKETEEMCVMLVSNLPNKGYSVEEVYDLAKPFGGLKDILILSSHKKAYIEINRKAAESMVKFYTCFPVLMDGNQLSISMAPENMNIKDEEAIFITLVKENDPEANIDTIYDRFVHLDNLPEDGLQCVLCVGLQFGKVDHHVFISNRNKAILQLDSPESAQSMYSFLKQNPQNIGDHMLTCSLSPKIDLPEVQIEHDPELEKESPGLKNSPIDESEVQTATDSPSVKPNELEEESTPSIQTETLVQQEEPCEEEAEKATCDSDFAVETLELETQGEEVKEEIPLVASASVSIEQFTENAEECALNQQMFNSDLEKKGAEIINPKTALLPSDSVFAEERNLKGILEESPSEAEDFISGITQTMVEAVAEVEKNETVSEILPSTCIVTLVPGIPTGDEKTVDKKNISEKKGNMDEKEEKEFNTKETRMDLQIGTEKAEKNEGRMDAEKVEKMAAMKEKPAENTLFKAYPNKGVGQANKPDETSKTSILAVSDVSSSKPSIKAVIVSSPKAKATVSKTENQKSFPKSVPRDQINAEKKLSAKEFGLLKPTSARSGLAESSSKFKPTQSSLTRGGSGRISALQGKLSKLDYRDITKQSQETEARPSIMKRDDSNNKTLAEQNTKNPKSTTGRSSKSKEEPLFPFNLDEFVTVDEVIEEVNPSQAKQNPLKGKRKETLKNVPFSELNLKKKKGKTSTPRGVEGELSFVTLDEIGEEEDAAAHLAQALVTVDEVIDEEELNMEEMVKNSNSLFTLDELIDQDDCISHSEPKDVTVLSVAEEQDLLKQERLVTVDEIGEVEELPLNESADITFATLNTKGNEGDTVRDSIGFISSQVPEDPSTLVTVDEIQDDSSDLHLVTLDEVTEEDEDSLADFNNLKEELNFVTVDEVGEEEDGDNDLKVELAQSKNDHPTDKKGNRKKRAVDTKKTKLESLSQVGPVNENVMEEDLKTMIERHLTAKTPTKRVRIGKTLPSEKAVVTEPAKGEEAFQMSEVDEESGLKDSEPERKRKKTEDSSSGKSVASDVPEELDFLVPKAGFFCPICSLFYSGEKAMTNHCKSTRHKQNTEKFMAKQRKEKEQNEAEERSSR
In short: as §1

[3] = biological target: T3, DTL Denticleless protein homolog (Homo sapiens, UniProt Q9NZJ0)
T3 construct: Cells were resuspended in cold PBS on ice and sonicated with a probe sonicator to achieve lysis; endogenous in cells
T3 sequence (Q9NZJ0 whole entry): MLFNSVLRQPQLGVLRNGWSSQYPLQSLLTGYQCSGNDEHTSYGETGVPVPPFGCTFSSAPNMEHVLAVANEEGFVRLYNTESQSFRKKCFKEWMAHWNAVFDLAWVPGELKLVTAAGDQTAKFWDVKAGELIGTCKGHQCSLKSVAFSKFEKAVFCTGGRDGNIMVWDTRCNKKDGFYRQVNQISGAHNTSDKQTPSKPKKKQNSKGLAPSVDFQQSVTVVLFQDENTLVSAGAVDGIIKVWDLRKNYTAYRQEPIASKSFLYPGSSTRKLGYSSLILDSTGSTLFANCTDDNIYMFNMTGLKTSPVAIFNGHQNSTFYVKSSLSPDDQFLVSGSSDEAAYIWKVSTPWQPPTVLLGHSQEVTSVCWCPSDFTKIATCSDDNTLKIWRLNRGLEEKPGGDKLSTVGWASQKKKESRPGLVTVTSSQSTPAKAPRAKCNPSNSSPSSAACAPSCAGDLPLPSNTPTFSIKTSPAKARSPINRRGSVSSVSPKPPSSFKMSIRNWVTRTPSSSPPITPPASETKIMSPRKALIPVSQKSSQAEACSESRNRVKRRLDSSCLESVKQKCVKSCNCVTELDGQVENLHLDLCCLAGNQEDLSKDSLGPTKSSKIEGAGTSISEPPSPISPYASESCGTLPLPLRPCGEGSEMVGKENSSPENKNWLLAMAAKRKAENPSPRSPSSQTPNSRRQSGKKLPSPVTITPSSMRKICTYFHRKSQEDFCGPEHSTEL
In short: as §1

FDFT1 Squalene synthase = biological target: T4, FDFT1 Squalene synthase (Homo sapiens, UniProt P37268)
T4 construct: 200 μL of lysate containing 5 mg/ml proteome was treated with 2 μL of 100× compound stock; endogenous in cells
T4 sequence (P37268 1-417): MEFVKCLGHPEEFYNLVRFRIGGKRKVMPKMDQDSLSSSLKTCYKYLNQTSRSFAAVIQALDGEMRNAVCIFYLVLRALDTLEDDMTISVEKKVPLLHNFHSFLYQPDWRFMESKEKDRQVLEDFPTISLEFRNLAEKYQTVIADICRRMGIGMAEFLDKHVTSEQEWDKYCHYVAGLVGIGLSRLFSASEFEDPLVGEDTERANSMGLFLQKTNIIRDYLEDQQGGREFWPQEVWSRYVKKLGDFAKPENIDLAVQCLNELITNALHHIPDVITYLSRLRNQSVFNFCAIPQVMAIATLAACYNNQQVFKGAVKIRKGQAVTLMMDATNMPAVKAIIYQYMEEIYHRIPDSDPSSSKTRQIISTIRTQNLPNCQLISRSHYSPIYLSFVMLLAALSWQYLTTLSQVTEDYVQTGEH
In short: as §1

T1 sequence (Q9H857 whole entry, the tested form may be a part): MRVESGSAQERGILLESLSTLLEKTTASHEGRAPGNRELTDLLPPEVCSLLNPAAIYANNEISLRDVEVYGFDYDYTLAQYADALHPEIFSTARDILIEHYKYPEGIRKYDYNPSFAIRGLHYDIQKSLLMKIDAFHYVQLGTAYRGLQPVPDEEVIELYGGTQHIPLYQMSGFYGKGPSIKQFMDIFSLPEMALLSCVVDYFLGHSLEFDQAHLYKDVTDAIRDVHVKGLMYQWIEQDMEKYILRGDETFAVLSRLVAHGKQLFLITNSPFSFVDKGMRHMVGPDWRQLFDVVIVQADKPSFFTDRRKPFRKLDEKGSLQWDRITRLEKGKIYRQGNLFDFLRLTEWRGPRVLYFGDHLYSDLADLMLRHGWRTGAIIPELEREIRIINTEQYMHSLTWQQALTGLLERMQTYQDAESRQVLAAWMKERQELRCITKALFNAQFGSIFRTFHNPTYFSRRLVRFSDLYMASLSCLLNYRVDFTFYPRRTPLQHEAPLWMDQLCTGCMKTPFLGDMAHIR

| Structure (SMILES) | Liganded ([1]; NT5DC2 Res# 504, uniprot Q9H857) | Liganded ([1]; NT5DC2 Res# 507, uniprot Q9H857) | Liganded ([2]; ZNF638 Res# 1023, uniprot Q14966) | Liganded ([2]; ZNF638 Res# 1026, uniprot Q14966) | Liganded ([3]; DTL Res# 136, uniprot Q9NZJ0) | Liganded ([3]; DTL Res# 141, uniprot Q9NZJ0) | Liganded (FDFT1 Squalene synthase; FDFT1 Res# 6, uniprot P37268) | 100 Max (FDFT1 Squalene synthase; uniprot P37268) | 100 ave (FDFT1 Squalene synthase; uniprot P37268) | 500 Max (FDFT1 Squalene synthase; uniprot P37268) | 500 ave (FDFT1 Squalene synthase; uniprot P37268) |
| --- | --- | --- | --- | --- | --- | --- | --- | --- | --- | --- | --- |
| COc1ccc2c(c1)CCCN2C(=O)CCl [KB02] | YES | YES | YES | YES | YES | YES | – | – | – | – | – |
| O=C(CCl)Nc1cc(C(F)(F)F)cc(C(F)(F)F)c1 [KBO3] | – | – | – | – | – | – | YES | 59.08 | 37.7 | 82.93 | 82.93 |
